# In PubChem BioAssay AID2060599 (Molecular Pharmacology Branch, DTP, NCI, 2025):
# System: 817829-284-R-J1-PDC complex spheroids, viability
# Assay: Anticancer human tumor 817829-284-R-J1-PDC patient-derived colon adenocarcinoma cell line growth inhibition [CLK]
# Details: for IC50: curve of first compound; for viability, T/C: stronger effect = lower value
# Method in brief: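 Multi-cell-type spheroids combined patient-derived tumor cells with HUVEC endothelial cells and human mesenchymal stem cells. Paired agents were dosed in half-log steps down from about clinical Cmax, or from 10 microM where Cmax was unknown.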
# [1] = second compound 0.0316 µM, first compound 0.0316 µM
# [2] = second compound 0.0316 µM, first compound 0.1 µM
# [3] = second compound 0.0316 µM, first compound 0.316 µM
# [4] = second compound 0.0316 µM, first compound 1 µM
# [5] = second compound 0.0316 µM, first compound 3.16 µM
# [6] = second compound 0.0316 µM, first compound 10 µM
# [7] = second compound 0.1 µM, first compound 0.0316 µM
# [8] = second compound 0.1 µM, first compound 0.1 µM
# [9] = second compound 0.1 µM, first compound 0.316 µM
# [10] = second compound 0.1 µM, first compound 1 µM
# [11] = second compound 0.1 µM, first compound 3.16 µM
# [12] = second compound 0.1 µM, first compound 10 µM
# [13] = second compound 0.316 µM, first compound 0.0316 µM
# [14] = second compound 0.316 µM, first compound 0.1 µM
# [15] = second compound 0.316 µM, first compound 0.316 µM
# [16] = second compound 0.316 µM, first compound 1 µM
# [17] = second compound 0.316 µM, first compound 3.16 µM
# [18] = second compound 0.316 µM, first compound 10 µM
# [19] = second compound 1 µM, first compound 0.0316 µM
# [20] = second compound 1 µM, first compound 0.1 µM
# [21] = second compound 1 µM, first compound 0.316 µM
# [22] = second compound 1 µM, first compound 1 µM
# [23] = second compound 1 µM, first compound 3.16 µM
# [24] = second compound 1 µM, first compound 10 µM
# [25] = second compound 3.16 µM, first compound 0.0316 µM
# [26] = second compound 3.16 µM, first compound 0.1 µM
# [27] = second compound 3.16 µM, first compound 0.316 µM
# [28] = second compound 3.16 µM, first compound 1 µM
# [29] = second compound 3.16 µM, first compound 3.16 µM
# [30] = second compound 3.16 µM, first compound 10 µM
# [31] = second compound 10 µM, first compound 0.0316 µM
# [32] = second compound 10 µM, first compound 0.1 µM
# [33] = second compound 10 µM, first compound 0.316 µM
# [34] = second compound 10 µM, first compound 1 µM
# [35] = second compound 10 µM, first compound 3.16 µM
# [36] = second compound 10 µM, first compound 10 µM
# 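Note: spheroids exposed to the agents for seven days before readout.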
smiles,measurement,setting,value
C#Cc1c(F)ccc2cc(O)cc(-c3ncc4c(N5CC6CCC(C5)N6)nc(OCC56CCCN5CC(F)C6)nc4c3F)c12 (stereo not drawn) + CNC(=O)c1ccc(Nc2nc(OC3CCCC3)c3c(-c4ccc5nc(C)oc5c4)c[nH]c3n2)c(OC)c1,IC50,second compound 0.0316 µM,< 31.6 nM
same,IC50,second compound 0.1 µM,< 31.6 nM
same,IC50,second compound 0.316 µM,< 31.6 nM
same,IC50,second compound 1 µM,< 31.6 nM
same,IC50,second compound 3.16 µM,< 31.6 nM
same,IC50,second compound 10 µM,34.4 nM
same,"viability, T/C",[1],34.1%
same,"viability, T/C",[2],43.8%
same,"viability, T/C",[3],24.7%
same,"viability, T/C",[4],22.7%
same,"viability, T/C",[5],19.7%
same,"viability, T/C",[6],17.7%
same,"viability, T/C",[7],27%
same,"viability, T/C",[8],26.2%
same,"viability, T/C",[9],22.1%
same,"viability, T/C",[10],29.4%
same,"viability, T/C",[11],26%
same,"viability, T/C",[12],30.8%
same,"viability, T/C",[13],33.1%
same,"viability, T/C",[14],20.1%
same,"viability, T/C",[15],23.5%
same,"viability, T/C",[16],33.7%
same,"viability, T/C",[17],25.6%
same,"viability, T/C",[18],15.5%
same,"viability, T/C",[19],23.1%
same,"viability, T/C",[20],18.2%
same,"viability, T/C",[21],19%
same,"viability, T/C",[22],38%
same,"viability, T/C",[23],24.4%
same,"viability, T/C",[24],10%
same,"viability, T/C",[25],24.8%
same,"viability, T/C",[26],20.4%
same,"viability, T/C",[27],23%
same,"viability, T/C",[28],20.9%
same,"viability, T/C",[29],20.8%
same,"viability, T/C",[30],10.5%
same,"viability, T/C",[31],52.5%
same,"viability, T/C",[32],20.1%
same,"viability, T/C",[33],22.6%
same,"viability, T/C",[34],18.4%
same,"viability, T/C",[35],17.7%
same,"viability, T/C",[36],9.34%
CC(CO)NC(=O)c1cc(-c2ccc(Cl)cc2)nn(-c2cnn(C)c2)c1=O (stereo not drawn) + CNC(=O)c1ccc(Nc2nc(OC3CCCC3)c3c(-c4ccc5nc(C)oc5c4)c[nH]c3n2)c(OC)c1,IC50,second compound 0.0316 µM,< 31.6 nM
same,IC50,second compound 0.1 µM,< 31.6 nM
same,IC50,second compound 0.316 µM,< 31.6 nM
same,IC50,second compound 1 µM,< 31.6 nM
same,IC50,second compound 3.16 µM,< 31.6 nM
same,IC50,second compound 10 µM,< 31.6 nM
same,"viability, T/C",[1],38.7%
same,"viability, T/C",[2],34.8%
same,"viability, T/C",[3],32.9%
same,"viability, T/C",[4],31%
same,"viability, T/C",[5],28.5%
same,"viability, T/C",[6],23.4%
same,"viability, T/C",[7],24.2%
same,"viability, T/C",[8],23.8%
same,"viability, T/C",[9],27.7%
same,"viability, T/C",[10],21.3%
same,"viability, T/C",[11],39.8%
same,"viability, T/C",[12],21.4%
same,"viability, T/C",[13],27.4%
same,"viability, T/C",[14],29.7%
same,"viability, T/C",[15],24.1%
same,"viability, T/C",[16],24.7%
same,"viability, T/C",[17],16.1%
same,"viability, T/C",[18],19.2%
same,"viability, T/C",[19],14.1%
same,"viability, T/C",[20],36.8%
same,"viability, T/C",[21],16%
same,"viability, T/C",[22],16.2%
same,"viability, T/C",[23],15.8%
same,"viability, T/C",[24],10.7%
same,"viability, T/C",[25],22.3%
same,"viability, T/C",[26],20.2%
same,"viability, T/C",[27],18.7%
same,"viability, T/C",[28],17.9%
same,"viability, T/C",[29],18.6%
same,"viability, T/C",[30],19.4%
same,"viability, T/C",[31],24.3%
same,"viability, T/C",[32],16.7%
same,"viability, T/C",[33],41.6%
same,"viability, T/C",[34],18.7%
same,"viability, T/C",[35],14.1%
same,"viability, T/C",[36],16.8%
CC(Nc1ccc2c(c1)OCCn1cc(N3C(=O)OCC3C(F)F)nc1-2)C(N)=O (stereo not drawn) + CNC(=O)c1ccc(Nc2nc(OC3CCCC3)c3c(-c4ccc5nc(C)oc5c4)c[nH]c3n2)c(OC)c1,IC50,second compound 0.0316 µM,< 31.6 nM
same,IC50,second compound 0.1 µM,< 31.6 nM
same,IC50,second compound 0.316 µM,< 31.6 nM
same,IC50,second compound 1 µM,< 31.6 nM
same,IC50,second compound 3.16 µM,< 31.6 nM
same,IC50,second compound 10 µM,< 31.6 nM
same,"viability, T/C",[1],40%
same,"viability, T/C",[2],32.3%
same,"viability, T/C",[3],42.4%
same,"viability, T/C",[4],48.6%
same,"viability, T/C",[5],29.8%
same,"viability, T/C",[6],20.4%
same,"viability, T/C",[7],20.4%
same,"viability, T/C",[8],26.4%
same,"viability, T/C",[9],20.2%
same,"viability, T/C",[10],20%
same,"viability, T/C",[11],33.4%
same,"viability, T/C",[12],15.1%
same,"viability, T/C",[13],37.9%
same,"viability, T/C",[14],19.6%
same,"viability, T/C",[15],19.9%
same,"viability, T/C",[16],21.6%
same,"viability, T/C",[17],18.5%
same,"viability, T/C",[18],15.5%
same,"viability, T/C",[19],23.4%
same,"viability, T/C",[20],20.8%
same,"viability, T/C",[21],16.7%
same,"viability, T/C",[22],17.6%
same,"viability, T/C",[23],16.1%
same,"viability, T/C",[24],15.3%
same,"viability, T/C",[25],22.2%
same,"viability, T/C",[26],18.8%
same,"viability, T/C",[27],16.5%
same,"viability, T/C",[28],18.6%
same,"viability, T/C",[29],13.1%
same,"viability, T/C",[30],13.6%
same,"viability, T/C",[31],15.1%
same,"viability, T/C",[32],16.6%
same,"viability, T/C",[33],14%
same,"viability, T/C",[34],18.2%
same,"viability, T/C",[35],16.8%
same,"viability, T/C",[36],9.33%
COc1c(OCCCN2CCOCC2)ccc2c3n(c(=NC(=O)c4cnc(N)nc4)nc12)CCN3 + CNC(=O)c1ccc(Nc2nc(OC3CCCC3)c3c(-c4ccc5nc(C)oc5c4)c[nH]c3n2)c(OC)c1,IC50,second compound 0.0316 µM,33.8 nM
same,IC50,second compound 0.1 µM,< 3.16 nM
same,IC50,second compound 0.316 µM,< 3.16 nM
same,IC50,second compound 1 µM,< 3.16 nM
same,IC50,second compound 3.16 µM,< 3.16 nM
same,IC50,second compound 10 µM,< 3.16 nM
same,"viability, T/C","second compound 0.0316 µM, first compound 0.00316 µM",39.8%
same,"viability, T/C","second compound 0.0316 µM, first compound 0.01 µM",41.3%
same,"viability, T/C",[1],74.9%
same,"viability, T/C",[2],19.1%
same,"viability, T/C",[3],4.03%
same,"viability, T/C",[4],1.87%
same,"viability, T/C","second compound 0.1 µM, first compound 0.00316 µM",24%
same,"viability, T/C","second compound 0.1 µM, first compound 0.01 µM",21%
same,"viability, T/C",[7],15.8%
same,"viability, T/C",[8],9.46%
same,"viability, T/C",[9],3.69%
same,"viability, T/C",[10],1.76%
same,"viability, T/C","second compound 0.316 µM, first compound 0.00316 µM",20.6%
same,"viability, T/C","second compound 0.316 µM, first compound 0.01 µM",22%
same,"viability, T/C",[13],18.4%
same,"viability, T/C",[14],9.72%
same,"viability, T/C",[15],3.22%
same,"viability, T/C",[16],2.08%
same,"viability, T/C","second compound 1 µM, first compound 0.00316 µM",31.5%
same,"viability, T/C","second compound 1 µM, first compound 0.01 µM",20.5%
same,"viability, T/C",[19],11.6%
same,"viability, T/C",[20],9.58%
same,"viability, T/C",[21],2.07%
same,"viability, T/C",[22],1.92%
same,"viability, T/C","second compound 3.16 µM, first compound 0.00316 µM",26.7%
same,"viability, T/C","second compound 3.16 µM, first compound 0.01 µM",24%
same,"viability, T/C",[25],11.9%
same,"viability, T/C",[26],5.77%
same,"viability, T/C",[27],2.1%
same,"viability, T/C",[28],1.82%
same,"viability, T/C","second compound 10 µM, first compound 0.00316 µM",19.7%
same,"viability, T/C","second compound 10 µM, first compound 0.01 µM",16%
same,"viability, T/C",[31],19.1%
same,"viability, T/C",[32],6.5%
same,"viability, T/C",[33],6.46%
same,"viability, T/C",[34],1.67%
